In the NIST ThermoML archive (doi:10.1016/j.tca.2009.10.001):
± gives the expanded uncertainty stated by the source.

Test: xn = mol fraction of the nth substance listed
Details: 101 kPa, Liquid; for viscosity: Capillary tube (Ostwald / Ubbelohde) method; for speed of sound: Linear variable-path acoustic interferometer; for mass density: Pycnometric method

CCCC#N [butanenitrile] + Cc1ccccc1
Details | mass density, 298.15 K [kg/m3] | mass density, 303.15 K [kg/m3] | mass density, 308.15 K [kg/m3] | speed of sound, 298.15 K [m/s] | speed of sound, 303.15 K [m/s] | speed of sound, 308.15 K [m/s] | viscosity, 298.15 K [mPa·s] | viscosity, 303.15 K [mPa·s] | viscosity, 308.15 K [mPa·s]
x2 = 0 | 784.7 ± 0.3 | 780.3 ± 0.4 | 775.9 ± 0.4 | 1271.4 ± 1.8 | 1252.2 ± 1.8 | 1233.9 ± 1.7 | 0.5463 ± 0.0061 | 0.5255 ± 0.006 | 0.5049 ± 0.0059
x2 = 0.082 | 792.7 ± 0.3 | 788.1 ± 0.3 | 783.6 ± 0.4 | 1276.3 ± 1.7 | 1256.5 ± 1.7 | 1237.9 ± 1.7 | 0.5484 ± 0.006 | 0.5265 ± 0.0059 | 0.5053 ± 0.0058
x2 = 0.1673 | 800.8 ± 0.3 | 796.1 ± 0.3 | 791.5 ± 0.3 | 1280.6 ± 1.7 | 1260.4 ± 1.7 | 1241.7 ± 1.7 | 0.5504 ± 0.006 | 0.5276 ± 0.0059 | 0.5058 ± 0.0058
x2 = 0.2537 | 808.6 ± 0.3 | 803.8 ± 0.3 | 799.2 ± 0.3 | 1284.9 ± 1.7 | 1264.5 ± 1.7 | 1245.4 ± 1.7 | 0.5522 ± 0.0059 | 0.5287 ± 0.0058 | 0.5064 ± 0.0057
x2 = 0.3488 | 816.8 ± 0.3 | 812 ± 0.3 | 807.4 ± 0.3 | 1289.2 ± 1.7 | 1268.6 ± 1.7 | 1249.3 ± 1.6 | 0.5541 ± 0.0059 | 0.5299 ± 0.0058 | 0.5069 ± 0.0057
x2 = 0.4436 | 824.5 ± 0.3 | 819.7 ± 0.3 | 815.1 ± 0.3 | 1292.6 ± 1.6 | 1272.2 ± 1.6 | 1252.5 ± 1.6 | 0.5559 ± 0.0058 | 0.5309 ± 0.0057 | 0.5074 ± 0.0056
x2 = 0.5435 | 832.2 ± 0.3 | 827.3 ± 0.3 | 822.8 ± 0.3 | 1294.9 ± 1.6 | 1274.6 ± 1.6 | 1254.7 ± 1.6 | 0.5576 ± 0.0058 | 0.5317 ± 0.0057 | 0.5079 ± 0.0056
x2 = 0.651 | 839.8 ± 0.3 | 834.9 ± 0.3 | 830.4 ± 0.3 | 1296.7 ± 1.6 | 1276.5 ± 1.6 | 1256.5 ± 1.6 | 0.5592 ± 0.0057 | 0.5324 ± 0.0056 | 0.5082 ± 0.0055
x2 = 0.759 | 846.9 ± 0.3 | 841.9 ± 0.3 | 837.4 ± 0.3 | 1298 ± 1.6 | 1277.4 ± 1.5 | 1257.8 ± 1.5 | 0.5607 ± 0.0057 | 0.5329 ± 0.0056 | 0.5084 ± 0.0055
x2 = 0.8771 | 854.1 ± 0.3 | 849.1 ± 0.3 | 844.6 ± 0.3 | 1298.7 ± 1.5 | 1278.3 ± 1.5 | 1259 ± 1.5 | 0.5622 ± 0.0056 | 0.5337 ± 0.0055 | 0.5088 ± 0.0054
